Data set [1] has as its target T1, M. globosa CYP5218 (Malassezia globosa, UniProt A8QCD3, A3L/A5L/F6A/I7V/S4L/S8F). Briefly: biochemical. Conditions: for binding spectra with CYP5218: result in words; for CYP5218 Kd (μM) Eadie-Hofstee / CYP5218 Kd (μM) Michaelis-Menten / Kd: 4 μM CYP5218, type I spectra, mean of three replicates with SD. The class given is binding. The procedure:
Reduced carbon monoxide difference spectroscopy[46][47] and absolute spectra between 700 and 300 nm were used to determine cytochrome P450 concentrations. Substrate and azole binding studies were performed[31][48] using 2.5 mM stock sterol solutions in 40% (wt/vol) (2-hydroxypropyl)-β-cyclodextrin (HPCD), 4 mg ml^−1 solutions of fatty acids in dimethylformamide (DMF), and stock 0.05, 0.1 and 0.2 mg ml^−1 solutions of azole antifungal agents in dimethylsulfoxide (DMSO). Sterols were titrated against 5 μM CYP51, fatty acids were titrated against 4 μM CYP5218 and azole antifungal agents were titrated against 2 μM CYP51 and CYP5218. The absorbance difference spectrum between 500 and 350 nm was determined after each incremental addition of ligand with saturation curves constructed from ΔApeak-trough against ligand concentration. […] The dissociation constants of the enzyme-azole complex were determined by non-linear regression (Levenberg-Marquardt algorithm) using a rearrangement of the Morrison equation for tight ligand binding. ProFit 6.1.12 (QuantumSoft, Zurich, Switzerland) was used for curve-fitting data. All ligand-binding studies were performed at 22 ± 2 °C and in triplicate. All spectral determinations were made using a Hitachi U-3310 UV/VIS spectrophotometer (San Jose, California).

In data set [2] the target is T1, M. globosa CYP5218. Particulars: 100 μM fatty acid, 1 hour to overnight (~16 h), three different cytochrome P450 reductase redox partners.
Procedure: The CYP5218 fatty acid reconstitution assay system used was based on that previously described by Guengerich[54] and contained 200 nM of CYP5218, 500 nM of cytochrome P450 reductase (A. fumigatus CPR1[52]) or H. sapiens CPR[55] or C. albicans CPR[56], 50 μM DLPC, 100 μM fatty acid (lauric acid, myristic acid, palmitic acid, palmitoleic acid, oleic acid and linoleic acid), 4 mM glucose-6-phosphate, 3 U/ml yeast glucose-6-phosphate dehydrogenase in a final volume of 500 μl with 0.1 M potassium phosphate (pH 7.4). Assay mixtures were incubated at 37 °C for 5 min prior to initiation with 4 mM β-NADPHNa4 and then incubated for a further 60 min or overnight (~16 h) at 37 °C. Fatty acid metabolites were recovered by extraction with dichloromethane and dried in a vacuum centrifuge. Samples were derivatized with 200 μl anhydrous pyridine and 250 μl BSTFA:TMCS (99:1) (30 min at 80 °C) and extracted with 500 μl of hexane, prior to analysis by GC/MS (Thermo GC Trace 1300 and ISQ MS). GC analysis was performed with a 5% phenyl methylpolysiloxane column (DB5) (Agilent Technologies). The oven programme was as follows: initial: 70 °C, with 3 min hold; ramp: 10 °C min^−1 to 180 °C (held for 2 min), 10 °C min^−1 to 250 °C (held for 2 min) and 10 °C min^−1 to 280 °C (held for 2 min). Data were analyzed using Thermo Xcalibur 2.2 software.
The target in data set [3] is T2, M. globosa CYP51 (Malassezia globosa, UniProt A8Q3I7, A7V/E4L/G6A/I5L/L2A/Q3L/W8F). Briefly: biochemical. The class given is binding. The procedure: (§1) Reduced carbon monoxide difference spectroscopy[46][47] and absolute spectra between 700 and 300 nm were used to determine cytochrome P450 concentrations. Substrate and azole binding studies were performed[31][48] using 2.5 mM stock sterol solutions in 40% (wt/vol) (2-hydroxypropyl)-β-cyclodextrin (HPCD), 4 mg ml^−1 solutions of fatty acids in dimethylformamide (DMF), and stock 0.05, 0.1 and 0.2 mg ml^−1 solutions of azole antifungal agents in dimethylsulfoxide (DMSO). Sterols were titrated against 5 μM CYP51, fatty acids were titrated against 4 μM CYP5218 and azole antifungal agents were titrated against 2 μM CYP51 and CYP5218. The absorbance difference spectrum between 500 and 350 nm was determined after each incremental addition of ligand with saturation curves constructed from ΔApeak-trough against ligand concentration. The dissociation constants (Kd) for sterols and fatty acids were determined by non-linear regression (Levenberg-Marquardt algorithm) using the Michaelis-Menten equation. The dissociation constants of the enzyme-azole complex were determined by non-linear regression (Levenberg-Marquardt algorithm) using a rearrangement of the Morrison equation for tight ligand binding. ProFit 6.1.12 (QuantumSoft, Zurich, Switzerland) was used for curve-fitting data. All ligand-binding studies were performed at 22 ± 2 °C and in triplicate. All spectral determinations were made using a Hitachi U-3310 UV/VIS spectrophotometer (San Jose, California).

In data set [4] the target is T1, M. globosa CYP5218. Briefly: biochemical. Conditions: for azole binding to CYP5218 (binding spectra): 2 μM CYP5218, result in words; for Kd: azole titrated against 2 μM CYP5218. The data set is classed as binding. Here is the method:
as §1

For data set [5], the system named is M. globosa ATCC MYA-4612. Briefly: M. globosa MIC100 determination. The class given is cell-based, Malassezia globosa. Conditions: Malassezia globosa, 168 h; modified Dixon medium, 30 °C, 7 days; read-out: MIC100. The procedure: M. globosa ATCC MYA-4612 was grown for 7 days at 30 °C in modified Dixon medium (3.6% malt extract, 2% desiccated ox-bile, 1% Tween 40, 0.6% peptone, 0.2% glycerol, 0.2% oleic acid, pH adjusted to 6 with HCl) until a culture density of 1.5 × 10^5 cells ml^−1 was obtained. Cells from 3 ml of stock culture were harvested, suspended in 1 ml of saline and used to inoculate 30 ml of fresh modified Dixon medium for use as M. globosa inoculums in MIC determinations. Stock azole concentrations of 1600, 800, 400, 200, 100, 50, 25, 12.5, 6.25, 3.125 and 0 μg ml^−1 were prepared in DMSO. These were diluted ten-fold with fresh modified Dixon media and 20 μl of the diluted azole solutions were then mixed with 180 μl of M. globosa inoculum in microtiter plate wells to yield final azole concentrations of 16, 8, 4, 2, 1, 0.5, 0.25, 0.125, 0.0625, 0.03125 and 0 μg ml^−1. The microtiter plates were incubated at 30 °C for 7 days and then read. Each azole MIC100 determination was performed in triplicate.

Data set [6] deals with T2, M. globosa CYP51. Particulars: 0.5 μM CYP51, 50 μM sterol substrate. The procedure:
(§2) Sterol metabolites were recovered by extraction with ethyl acetate followed by derivatization with 0.1 ml N,O-bis(trimethylsilyl)trifluoroacetamide (BSTFA) : trimethylchlorosilane (TMCS) (99:1) and 0.3 ml anhydrous pyridine (2 h at 80 °C) prior to analysis by gas chromatography mass spectrometry (GC/MS)[53].

Data set [7] concerns the target T2, M. globosa CYP51. Briefly: biochemical. Conditions: IC50, 0.5 μM CYP51, CYP51:AfCPR1 1:2, 50 μM lanosterol as substrate. The procedure:
as §2

For data set [8], the system named is M. globosa. Briefly: Sterol analysis of azole-treated M. globosa. The data set is classed as cell-based, Malassezia globosa. Conditions: 0.125 μg ml^−1 ketoconazole. The procedure:
Individual sterols were identified by reference to relative retention times, mass ions and fragmentation patterns. Sterol composition was calculated using peak areas.

The subject of data set [9] is C=C(CC[C@@H](C)[C@H]1CC[C@@]2(C)C3=C(CC[C@]12C)[C@@]1(C)CC[C@H](O)C(C)(C)[C@@H]1CC3)C(C)C. Briefly: purified protein, by the assay type. Particulars: other: 0.13 μM CYP51, 0.5 μM AfCPR1, 5 min at 37 °C, substrate inhibition equation.
Procedure: (§3) Assay mixtures were incubated at 37 °C for 10 minutes prior to initiation with 4 mM β-NADPHNa4 followed by shaking at 37 °C for 20 minutes. Sterol metabolites were recovered by extraction with ethyl acetate followed by derivatization with 0.1 ml N,O-bis(trimethylsilyl)trifluoroacetamide (BSTFA) : trimethylchlorosilane (TMCS) (99:1) and 0.3 ml anhydrous pyridine (2 h at 80 °C) prior to analysis by gas chromatography mass spectrometry (GC/MS)[53].
In data set [10] the test system is C=C(CC[C@@H](C)[C@H]1CC[C@@]2(C)C3=C(CC[C@]12C)[C@@]1(C)CC[C@H](O)[C@@H](C)[C@@H]1CC3)C(C)C. Briefly: purified protein, by the assay type. Conditions: other: 0.13 μM CYP51, 0.5 μM AfCPR1, 5 min at 37 °C, substrate inhibition equation.
Procedure: as §3
The mark [11] stands for this setting: CYP5218 Kd (μM) Michaelis-Menten.

In brackets after ≈: the same amount, converted by molar mass. Several values for one entry are separate records, joined by “and”; a condition that tells them apart may be missing. Equal entries are not always repeated. Where two headings read alike, the source gives them in different places.

T2 sequence (A8Q3I7 whole entry L2A/Q3L/E4L/I5L/G6A/A7V/W8F): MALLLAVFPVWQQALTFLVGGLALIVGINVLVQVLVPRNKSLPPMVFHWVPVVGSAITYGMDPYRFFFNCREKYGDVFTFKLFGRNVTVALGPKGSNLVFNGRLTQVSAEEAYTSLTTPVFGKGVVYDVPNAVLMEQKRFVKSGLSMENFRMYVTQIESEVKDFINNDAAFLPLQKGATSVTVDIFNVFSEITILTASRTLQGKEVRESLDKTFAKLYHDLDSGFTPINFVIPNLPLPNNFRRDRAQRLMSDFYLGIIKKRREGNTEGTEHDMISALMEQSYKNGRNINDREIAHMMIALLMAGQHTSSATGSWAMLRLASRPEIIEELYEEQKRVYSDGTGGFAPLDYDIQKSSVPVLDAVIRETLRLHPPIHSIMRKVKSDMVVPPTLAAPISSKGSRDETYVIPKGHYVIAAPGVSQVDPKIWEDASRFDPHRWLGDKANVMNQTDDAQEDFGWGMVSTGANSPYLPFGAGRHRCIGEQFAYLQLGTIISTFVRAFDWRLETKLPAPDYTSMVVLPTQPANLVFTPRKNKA

As to `C=CCCCCCCCCCCCCCC` [1-hexadecene], in data set [1], the “binding spectra with CYP5218” value is reported as “No binding spectra”.

In the case of `CCCCCCCCCCCCCCCCCCCC(=O)O` [Arachidic acid, arachidic acid], in data set [1], the “CYP5218 Kd (μM) Eadie-Hofstee” value is listed as “no binding”, the “CYP5218 Kd (μM) Michaelis-Menten” value is listed as “no binding” and the “binding spectra with CYP5218” value is given as “No binding spectra”.

As for `CCCCC/C=C\C/C=C\C/C=C\C/C=C\CCCC(=O)O` [Arachidonic acid, arachidonic acid], the figures for the dissociation constant (Kd) in data set [1] (CYP5218 Kd (μM) Eadie-Hofstee) and in data set [1] (setting [11]) were 256 ± 36 µM and 264 ± 34 µM, respectively.

`CCCCCCCCCC(=O)O` [Capric acid, capric acid]: in data set [1], the “CYP5218 Kd (μM) Eadie-Hofstee” value is “no binding”, the “CYP5218 Kd (μM) Michaelis-Menten” value was “no binding” and the “binding spectra with CYP5218” value is reported as “No binding spectra”.

In the case of `CC/C=C\CCCCCCCC(=O)O` [Lauroleic acid, lauroleic acid], the “CYP5218 Kd (μM) Michaelis-Menten” value in data set [1] is reported as “poor fit”. Also, in [1] (read-out: CYP5218 Kd (μM) Eadie-Hofstee), the Kd is 148 ± 20 µM.

For `CCCC/C=C\CCCCCCCC(=O)O` [Myristoleic acid, myristoleic acid], the dissociation constant Kd was 151 ± 8 µM in data set [1] (CYP5218 Kd (μM) Eadie-Hofstee) and 158 ± 20 µM in data set [1] (setting [11]).

Take `CCCCCCCC/C=C\CCCCCCCC(=O)O` [Oleic acid, oleic acid]: the dissociation constant (Kd) in [1] (CYP5218 Kd (μM) Eadie-Hofstee) amounted to 90 ± 16 µM; in data set [1] (setting [11]), 93 ± 11 µM. Also, the “product formation in CYP5218 reconstitution assay” value (“product formation” below) in [2] is “no observed product formation”.

With `CCCCCCCCCCCCCCCC(=O)O` [Palmitic acid, palmitic acid], the results for the dissociation constant (Kd) in data set [1] (CYP5218 Kd (μM) Eadie-Hofstee) and in data set [1] (setting [11]) were 253 ± 77 µM and 1020 ± 755 µM, respectively. Besides, the “product formation” value in data set [2] was “no observed product formation”.

Consider `CCCCCC/C=C\CCCCCCCC(=O)O` [Palmitoleic acid, palmitoleic acid], for which the Kd in data set [1] (CYP5218 Kd (μM) Eadie-Hofstee) amounted to 114 ± 5 µM; in data set [1] (setting [11]) it was 113 ± 7 µM. Besides, the “product formation” value in data set [2] is listed as “no observed product formation”.

Take `CCCCCCCCCCCCCCCCCC(=O)O` [Stearic acid, stearic acid]: in data set [1], the “CYP5218 Kd (μM) Eadie-Hofstee” value is “no fit ^a” and the “CYP5218 Kd (μM) Michaelis-Menten” value is “no fit ^a”.

On to `Clc1ccccc1C(c1ccccc1)(c1ccccc1)n1ccnc1` [clotrimazole], for which the Kd in data set [3] was 0.004 ± 0.002 µM; in [4], ~0.5 µM and 0.486 µM. Moreover, the “azole binding to CYP5218 (binding spectra)” value (“azole binding to CYP5218” below) in data set [4] is “type II binding spectra”. Also, the MIC in [5] came out at 8 µg/mL (≈ 23.2 µM).

Consider `C=C(CC[C@@H](C)[C@H]1CC[C@@]2(C)C3=C(CC[C@]12C)[C@@]1(C)CC[C@H](O)C(C)(C)[C@@H]1CC3)C(C)C` [eburicol], for which, in [1], the “binding spectra with CYP5218” value was “failed to give reproducible binding spectra”. The molecule also had a turnover number in data set [6] of 5.6 min⁻¹. In data set [3], the dissociation constant (Kd) worked out at 23 µM.

For the molecule `CCC(C)n1ncn(-c2ccc(N3CCN(c4ccc(OCC5COC(Cn6cncn6)(c6ccc(Cl)cc6Cl)O5)cc4)CC3)cc2)c1=O` (stereo not shown) [itraconazole], the dissociation constant (Kd) in data set [3] worked out at 0.002 ± 0.001 µM. In addition, in data set [4], the “azole binding to CYP5218” value is “type II binding spectra”; the Kd is ~0.4 µM and 0.407 µM. The same molecule came in with an IC50 in data set [7] of 0.188 ± 0.008 µM. The MIC in [5] was determined as 0.0625 µg/mL (≈ 0.0886 µM).

The molecule `CC(=O)N1CCN(c2ccc(OCC3COC(Cn4ccnc4)(c4ccc(Cl)cc4Cl)O3)cc2)CC1` (stereo not shown) [ketoconazole] gave a Kd in [3] of 0.002 ± 0.001 µM. For the same molecule, in data set [4], the “azole binding to CYP5218” value is reported as “type II binding spectra” and the Kd was around 1.6 µM. The molecule also showed an IC50 in [7] of 0.176 ± 0.016 µM. Moreover, in data set [5], the MIC is 0.25 µg/mL (≈ 0.47 µM). Also, in [8], the “sterol fraction (%) 4,4-dimethylzymosterol” value was determined as 0%, the “sterol fraction (%) Eburicol” value is 30.33%, the “sterol fraction (%) Episterol” value is 0% and the “sterol fraction (%) Ergosta-7-enol” value is listed as 1.58%. Besides, in data set [8], the “sterol fraction (%) Ergosta-8,22-dienol” value is reported as 1.89%, the “sterol fraction (%) Ergosta-8-enol” value stood at 2.23%, the “sterol fraction (%) Ergosterol” value worked out at 51.50% and the “sterol fraction (%) Fecosterol” value is recorded as 0.98%. Further, the “sterol fraction (%) Obtusifoliol” value in data set [8] came out at 0.18%. Moreover, in [8] (cholesterol assimilated from growth media), the “sterol fraction (%) Cholesterol” value is 1.92%.

As to `CC(C)=CCC[C@@H](C)[C@H]1CC[C@@]2(C)C3=C(CC[C@]12C)[C@@]1(C)CC[C@H](O)C(C)(C)[C@@H]1CC3` [lanosterol], the “binding spectra with CYP5218” value in data set [1] is given as “failed to give reproducible binding spectra”. In addition, the turnover number in [6] came out at 1.7 min⁻¹. The Kd in [3] was determined as 32 µM.

In the case of `CCCCC/C=C\C/C=C\CCCCCCCC(=O)O` [linoleic acid], the Kd in data set [1] (CYP5218 Kd (μM) Eadie-Hofstee) was found to be 36 ± 6 µM; in [1] (setting [11]), 36 µM. Further, in data set [2], the “product formation” value is “no observed product formation”.

On to `CCCCCCCCCCCCCCCC` [n-hexadecane], for which the “binding spectra with CYP5218” value in data set [1] is reported as “No binding spectra”.

As to `C=C(CC[C@@H](C)[C@H]1CC[C@@]2(C)C3=C(CC[C@]12C)[C@@]1(C)CC[C@H](O)[C@@H](C)[C@@H]1CC3)C(C)C` [obtusifoliol], in data set [6], the turnover number came out at 3.4 min⁻¹. The molecule also displayed a dissociation constant Kd in data set [3] of 28 µM.

On to `C[C@@H](c1ncncc1F)[C@](O)(Cn1cncn1)c1ccc(F)cc1F` [voriconazole], for which the Kd in [3] was 0.008 ± 0.005 µM; in data set [4], around 107 µM. For the same molecule, the MIC in [5] is 1 µg/mL (≈ 2.86 µM).

Turning to “M. globosa CYP51 (Malassezia globosa CBS 7966; A7V/E4L/G6A/I5L/L2A/Q3L/W8F)”, in data set [9], the Michaelis-Menten constant (Km) was found to be 55.91 ± 19.79 µM and the kcat was determined as 1.092 ± 0.2675 s⁻¹. Also, in data set [10], the Km came to 42.09 ± 10.45 µM and the kcat was found to be 0.8948 ± 0.2368 s⁻¹.

For orientation: Kd means a measure of binding affinity in units of concentration. In general, IC50 refers to the concentration that inhibits the measured activity by half. A high value points to weaker potency in that assay. The Km is the substrate concentration at which the rate is half of its maximum. The term kcat denotes the maximal rate divided by the concentration of active sites.
